Measurements from patent US11268064B2, “Lactobacillus rhamnosus RHT-3201 conjugated to polysaccharide polymer binder, and use thereof for prevention or treatment of atopic diseases” (IL DONG PHARMACEUTICAL CO., LTD., priority 2014, dated 2022).

What was measured:
[1] = Body weight measurement during administration; type: in vivo, NC/Nga mice; settings: administration during eight weeks; dexamethasone transdermal, RHT-3201 oral (FIG. 9)
Description: The dexamethasone was prepared by being dissolved in ethanol into a concentration of 0.1% (w/v), and RHT-3201 of the present invention was prepared by being dissolved in distilled water to doses of 1×10^8 CFU/0.5 ml/mouse, 1×10^9 CFU/0.5 ml/mouse, and 1×10^10 CFU/0.5 ml/mouse, respectively. All the samples to be administered were prepared on the testing day. The dexamethasone was coated on the skin of a testing subject at 100 μl for each subject twice a week, while RHT-3201 according to the present invention was orally administered at 0.5 ml for each subject using a mouse zonde once a day. Distilled water was administered for a normal group and an atopy control group. The administration was conducted for 8 weeks in all the test groups.
The number of scratching behaviors for 15 minutes was counted once a week from week 1 of administration of a test drug. Only the number of scratching behaviors using a hind leg was counted in order to avoid counting scratching behaviors due to the other causes besides scratching behaviors due to pruritus. Meanwhile, the weight loss tends to occur due to side effects of drugs and stress at the time of inducing severe atopic dermatitis. In order to investigate whether the side effect of weight loss occurs by the test materials of the present invention, the test animals were weighed during the administration period of the test materials.

[2] = system: severe atopic dermatitis-induced NC/Nga mice; test: Severe atopic dermatitis model, SCORAD evaluation; type: in vivo; settings: baseline, before treatment with test materials; positive control group
Description: RHT-3201 according to the present invention was used as a test material, while steroid-based dexamethasone (Sigma Co. Ltd), which is used as a main therapeutic agent for severe atopic dermatitis, was used as a positive control. An extract of Dermatophagoides farina, which is a major species of house dust mite, was used as an atopy inducing material. The extract was purchased in an ointment form from Central Lab. Animal Inc.
The dexamethasone was prepared by being dissolved in ethanol into a concentration of 0.1% (w/v), and RHT-3201 of the present invention was prepared by being dissolved in distilled water to doses of 1×10^8 CFU/0.5 ml/mouse, 1×10^9 CFU/0.5 ml/mouse, and 1×10^10 CFU/0.5 ml/mouse, respectively. […]
In the present evaluation, the severity of atopic dermatitis was expressed as a total of evaluation scores of five items, using SCORAD (SCORing Atopic Dermatitis), which is a generally used method for clinical macroscopic evaluation. […] The scores for the five items (no symptom (score 0), mild symptom (score 1), moderate symptom (score 2), severe symptom (score 3) for each item) were added up, while the evaluation score was determined between the lowest score of 0 (a state in which there is no symptom) and the highest score of 15 (a state in which the symptoms for all items were severe). The severity of the mouse skin lesions was evaluated every week (see FIG. 6). […]

C[C@@H]1C[C@H]2[C@@H]3CCC4=CC(=O)C=C[C@]4(C)[C@@]3(F)[C@@H](O)C[C@]2(C)[C@@]1(O)C(=O)CO [Dexamethasone, dexamethasone]
change in body weight [1]: weight loss for 4 weeks | Severe atopic dermatitis score Mean ± SE (n = 6) [2]: 10.8 ± 0.4
